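A five-concentration, 48-hour dose response in 96-well plates underlies each endpoint, interpolated linearly between surrounding concentrations. Here, GI50 denotes the concentration required for 50% inhibition of growth. TGI: concentration producing complete growth inhibition.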
Experiments:
Test in all cases: inhibition of tumour cell growth, NCI panel, 48 h
MDA-MB-231 breast = system: MDA-MB-231 breast
MDA-MB-435 = system: MDA-MB-435
NCI/ADR-RES ovarian = system: NCI/ADR-RES ovarian
MOLT-4 leukemia = system: MOLT-4 leukemia
NCI-H226 lung = system: NCI-H226 lung
SR leukemia = system: SR leukemia
HCT-116 colon = system: HCT-116 colon
HOP-62 NSCLC = system: HOP-62 NSCLC
A549 NSCLC = system: A549 NSCLC
MALME-3M melanoma = system: MALME-3M melanoma
SF-268 CNS = system: SF-268 CNS
BT-549 breast = system: BT-549 breast
KM12 colon = system: KM12 colon
OVCAR-8 ovarian = system: OVCAR-8 ovarian
SK-MEL-5 melanoma = system: SK-MEL-5 melanoma
HT29 colon = system: HT29 colon
HCC-2998 colon = system: HCC-2998 colon
UACC-62 melanoma = system: UACC-62 melanoma
HS 578T breast = system: HS 578T breast
COLO 205 colon = system: COLO 205 colon
MCF7 breast = system: MCF7 breast
U251 CNS = system: U251 CNS
OVCAR-5 ovarian = system: OVCAR-5 ovarian
SF-295 CNS = system: SF-295 CNS
SW-620 colon = system: SW-620 colon
SF-539 CNS = system: SF-539 CNS
HCT-15 colon = system: HCT-15 colon
ACHN renal = system: ACHN renal
HL-60(TB) leukemia = system: HL-60(TB) leukemia
CAKI-1 renal = system: CAKI-1 renal
786-0 renal = system: 786-0 renal
IGROV1 ovarian = system: IGROV1 ovarian
NCI-H460 lung = system: NCI-H460 lung
SNB-75 CNS = system: SNB-75 CNS
UACC-257 melanoma = system: UACC-257 melanoma
HOP-92 NSCLC = system: HOP-92 NSCLC
RPMI-8226 leukemia = system: RPMI-8226 leukemia
SN12C renal = system: SN12C renal
RXF 393 renal = system: RXF 393 renal
CCRF-CEM leukemia = system: CCRF-CEM leukemia
UO-31 renal = system: UO-31 renal
DU-145 prostate = system: DU-145 prostate
PC-3 prostate = system: PC-3 prostate
M14 melanoma = system: M14 melanoma
SK-MEL-2 melanoma = system: SK-MEL-2 melanoma
NCI-H23 lung = system: NCI-H23 lung
A498 renal = system: A498 renal
TK-10 renal = system: TK-10 renal
SK-OV-3 ovarian = system: SK-OV-3 ovarian
SK-MEL-28 melanoma = system: SK-MEL-28 melanoma
OVCAR-3 ovarian = system: OVCAR-3 ovarian
NCI-H522 lung = system: NCI-H522 lung
K-562 leukemia = system: K-562 leukemia
T-47D breast = system: T-47D breast
SNB-19 CNS = system: SNB-19 CNS
OVCAR-4 ovarian = system: OVCAR-4 ovarian

COc1ccc(C2=Nc3c/c(=C\c4c(O)[nH]c5cc(Cl)ccc45)ccc3=N2)cc1
GI50 (MDA-MB-231 breast): 5.23 µM
TGI (MDA-MB-231 breast): 19.6 µM
GI50 (MDA-MB-435): 260 nM
TGI (MDA-MB-435): 1970 nM
GI50 (NCI/ADR-RES ovarian): 5 µM
TGI (NCI/ADR-RES ovarian): 33.8 µM
GI50 (MOLT-4 leukemia): 4.85 µM
TGI (MOLT-4 leukemia): 29.9 µM
GI50 (NCI-H226 lung): > 100 µM
TGI (NCI-H226 lung): > 100 µM
GI50 (SR leukemia): 1130 nM
TGI (SR leukemia): 3.89 µM
GI50 (HCT-116 colon): 2380 nM
TGI (HCT-116 colon): 8.8 µM
GI50 (HOP-62 NSCLC): 12.4 µM
TGI (HOP-62 NSCLC): 29 µM
GI50 (A549 NSCLC): 10.1 µM
TGI (A549 NSCLC): 25.4 µM
GI50 (MALME-3M melanoma): 2870 nM
TGI (MALME-3M melanoma): 12.7 µM
GI50 (SF-268 CNS): 12.9 µM
TGI (SF-268 CNS): 32.4 µM
GI50 (BT-549 breast): 3.65 µM
TGI (BT-549 breast): 18.3 µM
GI50 (KM12 colon): 2490 nM
TGI (KM12 colon): 14.2 µM
GI50 (OVCAR-8 ovarian): 7.68 µM
TGI (OVCAR-8 ovarian): 22.8 µM
GI50 (SK-MEL-5 melanoma): 10.7 µM
TGI (SK-MEL-5 melanoma): 22.7 µM
GI50 (HT29 colon): 3.06 µM
TGI (HT29 colon): 11.4 µM
GI50 (HCC-2998 colon): 10.2 µM
TGI (HCC-2998 colon): 22.1 µM
GI50 (UACC-62 melanoma): 8.95 µM
TGI (UACC-62 melanoma): 22.7 µM
GI50 (HS 578T breast): 10.6 µM
TGI (HS 578T breast): 43.1 µM
GI50 (COLO 205 colon): 7.19 µM
TGI (COLO 205 colon): 21 µM
GI50 (MCF7 breast): 2420 nM
TGI (MCF7 breast): 12.8 µM
GI50 (U251 CNS): 2080 nM
TGI (U251 CNS): 5.64 µM
GI50 (OVCAR-5 ovarian): 22 µM
TGI (OVCAR-5 ovarian): 60 µM
GI50 (SF-295 CNS): 12.3 µM
TGI (SF-295 CNS): 63.8 µM
GI50 (SW-620 colon): 3.01 µM
TGI (SW-620 colon): 19 µM
GI50 (SF-539 CNS): 11.4 µM
TGI (SF-539 CNS): 28 µM
GI50 (HCT-15 colon): 3000 nM
TGI (HCT-15 colon): 11.5 µM
GI50 (ACHN renal): 17.3 µM
TGI (ACHN renal): 41.3 µM
GI50 (HL-60(TB) leukemia): 1970 nM
TGI (HL-60(TB) leukemia): 4.84 µM
GI50 (CAKI-1 renal): 14.5 µM
TGI (CAKI-1 renal): 43.6 µM
GI50 (786-0 renal): 7.85 µM
TGI (786-0 renal): 20.6 µM
GI50 (IGROV1 ovarian): 17.6 µM
TGI (IGROV1 ovarian): 50.5 µM
GI50 (NCI-H460 lung): 8.01 µM
TGI (NCI-H460 lung): 26.1 µM
GI50 (SNB-75 CNS): 3.1 µM
TGI (SNB-75 CNS): 14.2 µM
GI50 (UACC-257 melanoma): 11 µM
TGI (UACC-257 melanoma): 25.8 µM
GI50 (HOP-92 NSCLC): 553 nM
TGI (HOP-92 NSCLC): 9.83 µM
GI50 (RPMI-8226 leukemia): 1730 nM
TGI (RPMI-8226 leukemia): 4.62 µM
GI50 (SN12C renal): 13.9 µM
TGI (SN12C renal): 30 µM
GI50 (RXF 393 renal): 3.16 µM
TGI (RXF 393 renal): 12.2 µM
GI50 (CCRF-CEM leukemia): 1410 nM
TGI (CCRF-CEM leukemia): 9.21 µM
GI50 (UO-31 renal): 10.2 µM
TGI (UO-31 renal): 26.7 µM
GI50 (DU-145 prostate): 6.6 µM
TGI (DU-145 prostate): 21.6 µM
GI50 (PC-3 prostate): 3.18 µM
TGI (PC-3 prostate): 28.9 µM
GI50 (M14 melanoma): 4.17 µM
TGI (M14 melanoma): 21.6 µM
GI50 (SK-MEL-2 melanoma): 8.86 µM
TGI (SK-MEL-2 melanoma): 26.6 µM
GI50 (NCI-H23 lung): 10.2 µM
TGI (NCI-H23 lung): 24.2 µM
GI50 (A498 renal): 5.24 µM
TGI (A498 renal): > 100 µM
GI50 (TK-10 renal): 21 µM
TGI (TK-10 renal): 39.3 µM
GI50 (SK-OV-3 ovarian): 12.4 µM
TGI (SK-OV-3 ovarian): 30.5 µM
GI50 (SK-MEL-28 melanoma): 1550 nM
TGI (SK-MEL-28 melanoma): 19.9 µM
GI50 (OVCAR-3 ovarian): 2430 nM
TGI (OVCAR-3 ovarian): 8.24 µM
GI50 (NCI-H522 lung): 7.07 µM
TGI (NCI-H522 lung): 29.1 µM
GI50 (K-562 leukemia): 2180 nM
TGI (K-562 leukemia): 11.5 µM
GI50 (T-47D breast): 10.7 µM
TGI (T-47D breast): 29.8 µM
GI50 (SNB-19 CNS): 15.1 µM
TGI (SNB-19 CNS): 41.1 µM
GI50 (OVCAR-4 ovarian): 3.22 µM
TGI (OVCAR-4 ovarian): 13.6 µM
